Patent US20230029486A1, “A METHOD FOR ENHANCING THE PHARMACOKINETICS OR INCREASING THE PLASMA CONCENTRATION OF METHYL 3-((METHYLSULFONYL)AMINO)-2-(((4-PHENYLCYCLOHEXYL)OXY)METHYL)PIPERIDINE-1-CARBOXYLATE OR A SALT THEREOF WITH AN INHIBITOR OF CYTOCHROME P450” (TAKEDA PHARMACEUTICAL COMPANY LIMITED, priority 2020, published 2023)
Where two headings read alike, the source gives them in different places.

Assays:
[1] = test system: rodent model of narcolepsy; details: cited from earlier work
healthy mice = details: cited from earlier work
nonhuman primates = details: cited from earlier work
[2] = intravenous single dose studies, healthy volunteers and NT1 patients; cited from earlier work
CYP3A = test: Midazolam as in vivo probe for human CYP3A activity under cobicistat; details: 0.5 mg midazolam oral with 150 mg cobicistat QD, Day 7 and Day 10, versus 1 mg midazolam alone
Description: Midazolam is a benzodiazepine derivative that is exclusively metabolized by the CYP3A enzymatic pathway and therefore, was used as an in vivo probe for human CYP3A activity.
On Day 1, subjects received 1 mg midazolam orally and pharmacokinetic (PK) blood samples for midazolam (and its metabolite 1-hydroxy (1-OH) midazolam) were collected predose and up until 24 hours postdose to establish baseline cytochrome P450 (CYP) 3A activity.
On Days 7 and 10, 0.5 mg midazolam were administered orally (30 minutes after the cobicistat dose) and PK blood for midazolam and 1-OH midazolam were collected on each of these days, predose and up until 24 hours post midazolam dosing.
Blood PK sampling for midazolam and its metabolite (1-hydroxymidazolam): • Study Day 1: predose (prior to midazolam administration), 0.5, 1, 1.5, 2, 4, 6, 8, 12 hours postdose • Study Day 2: 24 hours post Day 1 dosing and prior to start of Compound A IV infusion • Study Day 7: predose (prior to cobicistat and midazolam administration), 0.5, 1, 1.5, 2, 4, 6, 8, 12 hours post midazolam dosing • Study Day 8: 24 hours post Day 7 midazolam dosing and prior to cobicistat administration • Study Day 10: predose (prior to cobicistat and midazolam administration), 0.5, 1, 1.5, 2, 4, 6, 8, 12 hours post midazolam dosing • Study Day 11: 24 hours post Day 10 midazolam dosing and prior to cobicistat administration

[3] = Phase 1 open-label study: single-dose plasma pharmacokinetics of Compound A with and without cobicistat; format: in vivo, human; details: for DNAUCinf112 (Day 12) / DNAUClast112 (Day 12) / DNCmax112 (Day 12): 14 mg Compound A oral + MD 150 mg cobicistat; for DNAUCinf112 (Day 12) / DNAUClast112 (Day 12) / DNCmax112 (Day 12) / DNAUCi nf 112Ratio (Day 12/Day 3) / DNAUCla st 112Ratio (Day 12/Day 3) / DNCma x 112Ratio (Day 12/Day 3) / DNAUCinf112 (Day 3) / DNAUClast112 (Day 3) / DNCmax112 (Day 3): n=15; for DNAUCi nf 112Ratio (Day 12/Day 3) / DNAUCla st 112Ratio (Day 12/Day 3) / DNCma x 112Ratio (Day 12/Day 3): 14 mg oral + cobicistat versus 112 mg oral alone, dose-normalized
Source text: The purpose of this study was to evaluate the effect of cobicistat on Compound A. The primary goal was to evaluate whether cobicistat can boost plasma concentrations of oral Compound A in humans and therefore, can be used in combination with Compound A as part of an oral dose regimen. The magnitude of this intentional drug-drug interaction (DDI) is also quantified. This was a non-randomized, open-label, fixed-sequence study in healthy male and female (women of non-childbearing potential [WONCBP]) subjects. […] Predose blood samples for cobicistat PK were also collected on Days 7, 9, 10, and 11. […] PK blood samples for cobicistat were collected predose on Day 12 and up until 24 hours post cobicistat dosing and at 24-hour post Day 13 cobicistat dosing. Plasma pharmacokinetic parameters of Compound A after oral administration with and without cobicistat as follows • Maximum observed concentration (Cmax). • Area under the concentration-time curve from time 0 to infinity, calculated using the observed value of the last quantifiable concentration (AUCinf). • Area under the concentration-time curve from time 0 to the time of the last quantifiable concentration (AUClast). […] Plasma pharmacokinetic parameters of Compound A after oral administration with and without cobicistat (Cmax, AUCinf and AUClast) were calculated.

[4] = Safety and tolerability of single oral dose of Compound A with and without cobicistat; format: in vivo, human; details: single oral dose of Compound A with steady state cobicistat, healthy adult subjects
Description: · To evaluate the safety and tolerability of a single oral dose of Compound A with and without cobicistat.
Safety was assessed by monitoring for adverse events (AEs), vital signs, safety 12-lead electrocardiograms (ECGs), safety laboratory assessments, pulse oximetry, C-SSRS (Columbia Suicide Severity Rating Scale), and physical examinations throughout the study.

[5] = 14 mg Compound A oral + QD 150 mg cobicistat compared to 14 mg IV alone (9-hour IV infusion)
[6] = 14 mg Compound A oral + QD 150 mg cobicistat versus 112 mg oral alone, dose-normalized to 112 mg
[7] = 112 mg Compound A oral alone compared to 14 mg Compound A IV alone
[8] = Geom Mean, dose-normalized to 112 mg
[9] = Geom Mean, 112 mg Compound A oral alone
[10] = Mean, dose-normalized to 112 mg
[11] = Mean, 112 mg Compound A oral alone

COC(=O)N1CCCC(NS(C)(=O)=O)C1COC1CCC(c2ccccc2)CC1 (stereo not shown) [methyl 3-((methylsulfonyl)amino)-2-(((4-phenylcyclohexyl)oxy)methyl)piperidine-1-carboxylate]
improving wakefulness [1]: significant effects
reducing cataplexy-like symptoms [1]: significant effects
wakefulness (healthy mice): promoted wakefulness
wakefulness (nonhuman primates): promoted wakefulness
safety and tolerability [2]: safe and well-tolerated

Cc1ncc2n1-c1ccc(Cl)cc1C(c1ccccc1F)=NC2 [midazolam]
midazolam Cmax, increase with cobicistat (CYP3A): approximately 5 fold

COC(=O)N1CCC[C@H](NS(C)(=O)=O)[C@@H]1CO[C@H]1CC[C@@H](c2ccccc2)CC1 [Compound A, methyl (2R,3S)-3-((methylsulfonyl)amino)-2-(((cis-4-phenylcyclohexyl)oxy)methyl)piperidine-1-carboxylate]
mean t1/2z ([3]; 14 mg Compound A IV alone): 3.7 h
mean t1/2z ([3]; 14 mg Compound A oral + QD 150 mg cobicistat): ~ 8 hours
geometric mean dose-normalized AUC∞, increase over IV [3, 5]: 2.8 fold
geometric mean dose-normalized Cmax, increase over IV [3, 5]: 7.9 fold
increase of geometric LSM AUClast [3, 6]: ~109 fold
increase of geometric LSM AUC∞ [3, 6]: ~109 fold
increase of geometric LSM Cmax [3, 6]: approximately 50 fold
dose-normalized Cmax, AUCinf and AUClast of plasma Compound A, Day 12 versus Day 3 ([3]; 14 mg oral + MD 150 mg cobicistat versus 112 mg oral alone): much higher
mean t1/2z ([3]; 112 mg Compound A oral alone): 4.9 h
geometric mean dose-normalized AUC∞, lower than IV [3, 7]: ~97%
geometric mean dose-normalized Cmax, lower than IV [3, 7]: approximately 84%
DNAUCinf112 (Day 12) [3, 8]: 7623 ng*hr/mL/112 mg Compound A
DNAUClast112 (Day 12) [3, 8]: 7504 ng*hr/mL/112 mg Compound A
DNCmax112 (Day 12) [3, 8]: 2253 ng/mL/112 mg Compound A
DNAUCi nf 112Ratio (Day 12/Day 3) ([3]; Geom Mean): 10942%
DNAUCla st 112Ratio (Day 12/Day 3) ([3]; Geom Mean): 10871%
DNCma x 112Ratio (Day 12/Day 3) ([3]; Geom Mean): 5028%
DNAUCinf112 (Day 3) [3, 9]: 69.67 ng*hr/mL/112 mg Compound A
DNAUClast112 (Day 3) [3, 9]: 69.02 ng*hr/mL/112 mg Compound A
DNCmax112 (Day 3) [3, 9]: 44.81 ng/mL/112 mg Compound A
DNAUCinf112 (Day 12) [3, 10]: 8448 ng*hr/mL/112 mg Compound A
DNAUClast112 (Day 12) [3, 10]: 8231 ng*hr/mL/112 mg Compound A
DNCmax112 (Day 12) ([3]; Mean, dose-normalized to 112 mg, plasma, healthy subjects): 2335 ng/mL/112 mg Compound A
DNAUCi nf 112Ratio (Day 12/Day 3) ([3]; Mean): 14349%
DNAUCla st 112Ratio (Day 12/Day 3) ([3]; Mean): 14385%
DNCma x 112Ratio (Day 12/Day 3) ([3]; Mean): 8290%
DNAUCinf112 (Day 3) [3, 11]: 94.59 ng*hr/mL/112 mg Compound A
DNAUClast112 (Day 3) [3, 11]: 94.21 ng*hr/mL/112 mg Compound A
DNCmax112 (Day 3) ([3]; Mean, 112 mg Compound A oral alone, plasma, healthy subjects): 66.35 ng/mL/112 mg Compound A
systemic exposures of Compound A administered orally, effect of cobicistat ([3]; via potent CYP3A inhibition, healthy adult subjects): significantly increased
safety and tolerability [4]: generally safe and well tolerated
